{"source": "paper PMC6006285", "about": "“Specific stereochemistry of OP-1074 disrupts estrogen receptor alpha helix 12 and confers pure antiestrogenic activity” (Nature Communications, 2018)", "key": {"[1]": {"test_system": "estrogen responsive reporter gene, ERE-tk109-Luc, in MCF-7 cells", "assay": "Inhibition of E2-stimulated transcription of ERE-tk109-Luc reporter gene in MCF-7 cells", "type": "cell-based", "conditions": "Homo sapiens"}, "MCF-7 cells": {"test_system": "MCF-7 cells", "assay": "Inhibition of E2-stimulated proliferation of MCF-7 cells", "type": "cell-based", "conditions": "Homo sapiens"}, "[2]": {"biological_target": "T1, glucocorticoid receptor (GR) (Homo sapiens, UniProt P04150)", "T1 construct": "HeLa cells were transfected as above but also with plasmids for full length wild; expressed in transfected cells; host or cells: HeLa", "T1 sequence (P04150 1-777)": "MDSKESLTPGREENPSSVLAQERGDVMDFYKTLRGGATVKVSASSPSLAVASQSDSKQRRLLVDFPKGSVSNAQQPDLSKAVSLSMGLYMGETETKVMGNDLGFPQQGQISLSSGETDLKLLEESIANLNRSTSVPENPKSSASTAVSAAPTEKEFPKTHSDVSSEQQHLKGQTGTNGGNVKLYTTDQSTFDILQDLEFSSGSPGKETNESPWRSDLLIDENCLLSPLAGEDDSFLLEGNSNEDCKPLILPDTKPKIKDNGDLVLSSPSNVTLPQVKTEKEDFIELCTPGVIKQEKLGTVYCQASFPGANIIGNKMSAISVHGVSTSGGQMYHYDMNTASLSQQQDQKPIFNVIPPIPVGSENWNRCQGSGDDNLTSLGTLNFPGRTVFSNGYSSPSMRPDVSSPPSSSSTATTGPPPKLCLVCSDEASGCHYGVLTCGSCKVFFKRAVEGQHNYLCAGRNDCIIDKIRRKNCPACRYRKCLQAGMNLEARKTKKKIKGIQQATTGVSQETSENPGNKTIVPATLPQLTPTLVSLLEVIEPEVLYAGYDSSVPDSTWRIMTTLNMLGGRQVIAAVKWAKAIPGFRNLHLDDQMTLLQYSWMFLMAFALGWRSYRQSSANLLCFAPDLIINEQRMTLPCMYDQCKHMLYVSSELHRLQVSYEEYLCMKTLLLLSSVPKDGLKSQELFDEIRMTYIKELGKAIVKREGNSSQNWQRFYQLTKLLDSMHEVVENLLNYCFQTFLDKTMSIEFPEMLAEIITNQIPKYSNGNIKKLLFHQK", "assay": "PRE3X-TATA-Luc reporter in HeLa cells transfected with GR", "type": "cell-based", "conditions": "alone or + 32 nM Dex, 22 h", "protocol": "(§1) representative experiment. […]\n(§2) receptor (AR, (B)), glucocorticoid receptor (GR, (C)), and the B-isoform of the progesterone receptor (PR-B, (D)). HeLa cells were transfected with the designated wild type receptor along with reporter gene PRE3X-TATA-Luc, which is promiscuously activated with known agonists specific for each receptor: R1881 for AR, dexamethasone (Dex) for GR, and medroxyprogesterone acetate (MPA) for PR-B. Each receptor was also dosed with one concentration of known antagonist for each receptor: 32 nM bicalutamide for AR, and 500 nM RU486 for GR and PR. Transfected cells were treated with the designated ligands for 22 hours and luciferase activity assayed. Shown are representative experiments, independently performed at least 3 times. Note that curves for agonists for each receptor were performed in separate experiments. Shown are means with SEM, normalized to percent of 32 nM R1881 for AR, 32 nM Dex for GR, and 0.5 µM MPA for PR-B (except with MPA alone, which was normalized to […]\n(§3) either ERα or ERβ, and 85 ng ERE-3x-Luc, containing 3 copies of estrogen-response element (ERE) cloned into pGL4.23 luciferase reporter gene containing a minimal TATA promoter […]\n(§4) hours (1.25% total final charcoal dextran stripped FBS). Bright Glo luciferase reagent (Promega) […]"}, "[3]": {"test_system": "uterus of ovariectomized BALB/c mice", "assay": "Uterine wet weight (uterotrophic assay) in ovariectomized BALB/c mice", "type": "in vivo, mouse", "conditions": "100 mg/kg oral gavage daily for 3 days", "source_text": "Shown is a representative figure analyzed and presented as above.\nTo confirm that OP-1074 lacks agonist activity in the uterus, we tested it in ovariectomized BALB/c mice in a uterotrophic assay. […] Thus, OP-1074 is a pure antiestrogen in the mouse uterus.\nAnimals were euthanized and uteri dissected and weighed."}, "[4]": {"biological_target": "T2, B-isoform of the progesterone receptor (PR-B) (Homo sapiens, UniProt P06401)", "T2 construct": "HeLa cells were transfected as above but also with plasmids for full length wild; expressed in transfected cells; host or cells: HeLa", "T2 sequence (P06401 1-933)": "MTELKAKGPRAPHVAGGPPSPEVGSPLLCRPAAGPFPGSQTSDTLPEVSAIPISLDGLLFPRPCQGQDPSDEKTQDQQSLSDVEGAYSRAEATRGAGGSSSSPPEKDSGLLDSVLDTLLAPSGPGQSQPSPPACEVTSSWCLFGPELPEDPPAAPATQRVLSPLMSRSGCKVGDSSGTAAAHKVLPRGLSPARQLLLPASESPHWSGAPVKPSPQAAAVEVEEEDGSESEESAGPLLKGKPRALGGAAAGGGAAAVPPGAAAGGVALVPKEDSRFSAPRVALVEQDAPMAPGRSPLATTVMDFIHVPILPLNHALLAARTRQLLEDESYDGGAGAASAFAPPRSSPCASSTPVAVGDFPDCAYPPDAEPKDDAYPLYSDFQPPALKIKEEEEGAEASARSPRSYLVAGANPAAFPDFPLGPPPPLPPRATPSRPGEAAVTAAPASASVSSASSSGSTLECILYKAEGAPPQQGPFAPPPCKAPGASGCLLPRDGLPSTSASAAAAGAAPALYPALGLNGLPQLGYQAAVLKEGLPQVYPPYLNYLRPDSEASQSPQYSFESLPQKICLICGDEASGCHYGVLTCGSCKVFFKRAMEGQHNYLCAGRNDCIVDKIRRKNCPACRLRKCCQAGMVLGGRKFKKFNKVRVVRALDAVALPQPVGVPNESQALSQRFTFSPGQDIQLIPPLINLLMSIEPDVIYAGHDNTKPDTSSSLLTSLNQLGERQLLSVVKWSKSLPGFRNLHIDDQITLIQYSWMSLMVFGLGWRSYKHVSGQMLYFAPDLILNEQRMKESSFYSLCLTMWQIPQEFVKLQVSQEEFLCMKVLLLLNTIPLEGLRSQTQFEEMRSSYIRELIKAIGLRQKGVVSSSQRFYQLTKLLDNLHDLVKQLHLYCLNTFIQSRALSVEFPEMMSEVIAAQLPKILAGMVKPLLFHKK", "assay": "PRE3X-TATA-Luc reporter in HeLa cells transfected with PR-B", "type": "cell-based", "conditions": "alone or + 500 nM MPA, 22 h", "protocol": "as §1, §2, §3, §4"}}, "note": "Where two headings read alike, the source gives them in different places."}
{"compound": "CC1=C(c2ccc(O)cc2)[C@H](c2ccc(OCCN3CC[C@@H](C)C3)cc2)Oc2cc(O)ccc21", "note": "[OP-1074]", "values": [{"measurement": "IC50", "setting": "[1]; MCF7, 22 h, read-out: IC50 inhibition of E2-stimulated transcription (Fig. 3a)", "value": 3.2, "unit": "nM"}, {"measurement": "IC50", "setting": "[1]; MCF7, 24 h, read-out: IC50 transcription", "value": "1.8 ± 0.3", "unit": "nM"}, {"measurement": "IC50", "setting": "MCF-7 cells; MCF7, 168 h, read-out: MCF-7 IC50 proliferation (Fig. 3b)", "value": 9.2, "unit": "nM"}, {"measurement": "IC50", "setting": "MCF-7 cells; MCF7, read-out: IC50 proliferation", "value": "7.2 ± 0.9", "unit": "nM"}, {"measurement": "Agonist and antagonist activity on GR", "setting": "[2]", "value": "lacks agonist and antagonist activity"}, {"measurement": "Uterine wet weight, agonist mode", "setting": "[3]; absence of E2, OP-1074 as mixture of active and inactive diastereomers", "value": "did not increase uterine wet weight"}, {"measurement": "Uterine wet weight, antagonist mode", "setting": "[3]; co-treated with E2 subcutaneously", "value": "not significantly different from fulvestrant"}, {"measurement": "Agonist and antagonist activity on PR-B", "setting": "[4]", "value": "lacks agonist and antagonist activity"}]}
